The results in this text go back to PubChem BioAssay (NCI).

The structures appear in SMILES notation. Where “and” joins values, the source holds several entries; their conditions need not be identical. Equal values may be shown once.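 Method: 48-hour compound exposure of cells in 96-well plates, five concentrations, linear interpolation of endpoints. GI50 marks 50% less growth. At the TGI there is no net growth.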

Holding throughout (experiment): DTP human tumour cell line panel, 48 h
In assay [1] the test system is SK-MEL-28 melanoma.
Assay [2] concerns HOP-92 NSCLC.
Assay [3] relates to UACC-257 melanoma.
The test system of assay [4] is SF-539 CNS.
The subject of assay [5] is BT-549 breast.
In assay [6] the test system is SNB-19 CNS.
The test system of assay [7] is RPMI-8226 leukemia.
For assay [8], the system named is KM12 colon.
For assay [9], the system named is OVCAR-8 ovarian.
The test system of assay [10] is MDA-MB-231 breast.

In general, GI50 refers to the concentration at which growth is held to half of that of the control. Usually TGI stands for the concentration giving total growth inhibition. Higher therefore signals lower sensitivity of the cells. On to `C/C(=N\NC(=S)N1CCN(c2ccccn2)CC1)c1ncccn1`, for which the GI50 in [1] is 0.566 µM; in [2], 0.208 µM; in assay [3], 0.0339 µM; in [4] it was 0.655 µM; in assay [5], 0.0936 µM; in [7], less than 0.0205 µM. Further, the GI50 in [8] is 0.153 µM; in assay [9], 0.0154 µM. Further, the TGI is 7.1 µM and 14.1 µM in assay [1]; 5.91 µM and 3.08 µM in assay [2]; 1.42 µM and 4.27 µM in assay [3]; 6.38 µM and 15.9 µM in assay [4]; 18.8 µM in assay [5]; 19 µM in [6]. Moreover, the total growth inhibition concentration (TGI) is 2.94 µM and 12.1 µM in assay [7]; 5.92 µM and 15.1 µM in assay [8]; 5.4 µM and 16.4 µM in assay [9]; 19.4 µM in assay [10].
`[Cl][Cu][Cl]`: the GI50 in [1], in [2], in assay [3], in assay [4], in assay [5] and in [6] was more than 10 µM throughout. Also, the GI50 in [7], in assay [8], in assay [9] and in [10] was more than 10 µM throughout. For the same molecule, the TGI in assay [1], in assay [2], in assay [3], in [4], in assay [5] and in assay [6] was more than 10 µM each time. For the same molecule, the TGI in assay [7], in assay [8], in [9] and in [10] was more than 10 µM each time.
For `COc1ccc(S(=O)(=O)N2CCNCC2)cc1OC`, the GI50 in [1], in assay [2], in assay [3], in [4], in assay [5] and in assay [6] was more than 100 µM throughout. In addition, the GI50 in assay [7], in assay [8], in [9] and in assay [10] was more than 100 µM throughout. In addition, the TGI in assay [1], in assay [2], in [3], in assay [4], in assay [5] and in [6] was more than 100 µM in each case. In addition, the concentration for total growth inhibition (TGI) in [7], in assay [8], in [9] and in [10] was more than 100 µM throughout.
Consider `Cc1ccc(S(=O)(=O)NC(=O)OC23COCN2COC3)cc1`, for which the total growth inhibition concentration (TGI) in assay [1], in assay [2], in assay [3], in [4], in [5] and in assay [6] was more than 100 µM throughout. Besides, the TGI in [7] was 73 µM; in assay [8], more than 100 µM; in [9], more than 100 µM; in [10], more than 100 µM.
Consider `COC(=O)c1cc([N+](=O)[O-])cc([N+](=O)[O-])c1Cl`, for which the GI50 was 1.94 µM in assay [1]; 1.64 µM in assay [2]; 1.58 µM in assay [3]; 1.98 µM in assay [4]; 10.7 µM in [5]; 17.4 µM in [6]. The GI50 in assay [7] was 2.4 µM; in [8], 11.3 µM; in assay [9] it was 2.01 µM; in assay [10], 2.34 µM. Moreover, the total growth inhibition concentration (TGI) in [1] stood at 4.08 µM; in assay [2], 3.04 µM; in [3], 2.98 µM; in [4] it was 4.22 µM; in assay [5], 22.6 µM; in assay [6], 34.5 µM. Also, the TGI in assay [7] was 5.66 µM; in [8], 23.6 µM; in [9], 4.38 µM; in assay [10], 5.79 µM.
Take `COc1ccc(/C=N\Nc2nc(SCC(C)C)nc(-c3ccc(OC)cc3)c2C#N)cc1`: the GI50 in assay [1] was 30.8 µM; in [2], 2.39 µM; in assay [3] it was 3.35 µM; in assay [4], 6.28 µM; in assay [5], 15.7 µM; in [6] it was 6.81 µM. The GI50 in assay [7] is 5.48 µM; in assay [8] it was 10.6 µM; in assay [9], 5.3 µM; in [10], 6.66 µM. The TGI in assay [1] is more than 100 µM; in assay [2], 14.1 µM; in assay [3] it was 35.7 µM; in assay [4] it was 20.1 µM; in assay [5], 52.5 µM; in [6], 33.3 µM. Also, the total growth inhibition concentration (TGI) is more than 100 µM in [7], more than 100 µM in [8], 29.8 µM in [9] and 25 µM in assay [10].
